Assay results as given in the NIST ThermoML archive (doi:10.1007/s10765-005-5570-x).
Numbers after ± are expanded uncertainties.

Test: xn = mol fraction of the nth substance listed
Conditions: Liquid

Structure (SMILES): ClCCCl [1,2-dichloroethane] + CCOC(C)=O
- mass density (288.15 K, 101.33 kPa, x1 = 0.1036): 936.39 ± 0.41 kg/m3
- mass density (288.15 K, 101.33 kPa, x1 = 0.2054): 966.98 ± 0.36 kg/m3
- mass density (288.15 K, 101.33 kPa, x1 = 0.3019): 996.99 ± 0.32 kg/m3
- mass density (288.15 K, 101.33 kPa, x1 = 0.4003): 1028.99 ± 0.36 kg/m3
- mass density (288.15 K, 101.33 kPa, x1 = 0.4963): 1061.48 ± 0.43 kg/m3
- mass density (288.15 K, 101.33 kPa, x1 = 0.602): 1098.83 ± 0.5 kg/m3
- mass density (288.15 K, 101.33 kPa, x1 = 0.682): 1128.5 ± 0.6 kg/m3
- mass density (288.15 K, 101.33 kPa, x1 = 0.8002): 1174.96 ± 0.67 kg/m3
- mass density (288.15 K, 101.33 kPa, x1 = 0.9001): 1216.19 ± 0.76 kg/m3
- mass density (288.15 K, 101.33 kPa, x1 = 1): 1260.13 ± 0.86 kg/m3
- mass density (298.15 K, 101.33 kPa, x1 = 0.1036): 924.54 ± 0.43 kg/m3
- mass density (298.15 K, 101.33 kPa, x1 = 0.2054): 954.82 ± 0.38 kg/m3
- mass density (298.15 K, 101.33 kPa, x1 = 0.3019): 984.84 ± 0.33 kg/m3
- mass density (298.15 K, 101.33 kPa, x1 = 0.4003): 1016.64 ± 0.34 kg/m3
- mass density (298.15 K, 101.33 kPa, x1 = 0.4963): 1048.95 ± 0.4 kg/m3
- mass density (298.15 K, 101.33 kPa, x1 = 0.602): 1086.09 ± 0.48 kg/m3
- mass density (298.15 K, 101.33 kPa, x1 = 0.682): 1115.64 ± 0.54 kg/m3
- mass density (298.15 K, 101.33 kPa, x1 = 0.8002): 1161.78 ± 0.64 kg/m3
- mass density (298.15 K, 101.33 kPa, x1 = 0.9001): 1202.79 ± 0.73 kg/m3
- mass density (298.15 K, 101.33 kPa, x1 = 1): 1246.59 ± 0.83 kg/m3
- mass density (298.15 K, 200 kPa, x1 = 0.2995): 983.88 ± 0.34 kg/m3
- mass density (298.15 K, 200 kPa, x1 = 0.5013): 1046.97 ± 0.4 kg/m3
- mass density (298.15 K, 200 kPa, x1 = 0.6994): 1120.18 ± 0.55 kg/m3
- mass density (298.15 K, 500 kPa, x1 = 0.2995): 984.27 ± 0.34 kg/m3
- mass density (298.15 K, 600 kPa, x1 = 0.5013): 1047.36 ± 0.4 kg/m3
- mass density (298.15 K, 600 kPa, x1 = 0.6994): 1120.72 ± 0.56 kg/m3
- mass density (298.15 K, 1100 kPa, x1 = 0.5013): 1047.97 ± 0.41 kg/m3
- mass density (298.15 K, 1200 kPa, x1 = 0.2995): 985.01 ± 0.34 kg/m3
- mass density (298.15 K, 1200 kPa, x1 = 0.6994): 1121.21 ± 0.58 kg/m3
- mass density (298.15 K, 2100 kPa, x1 = 0.5013): 1049.05 ± 0.42 kg/m3
- mass density (298.15 K, 2100 kPa, x1 = 0.6994): 1122.19 ± 0.6 kg/m3
- mass density (298.15 K, 2300 kPa, x1 = 0.2995): 986.02 ± 0.34 kg/m3
- mass density (298.15 K, 2900 kPa, x1 = 0.2995): 986.78 ± 0.34 kg/m3
- mass density (298.15 K, 3000 kPa, x1 = 0.6994): 1122.99 ± 0.63 kg/m3
- mass density (298.15 K, 3200 kPa, x1 = 0.5013): 1050.04 ± 0.43 kg/m3
- mass density (298.15 K, 3900 kPa, x1 = 0.5013): 1050.82 ± 0.44 kg/m3
- mass density (298.15 K, 4000 kPa, x1 = 0.2995): 987.78 ± 0.34 kg/m3
- mass density (298.15 K, 4000 kPa, x1 = 0.6994): 1124.04 ± 0.65 kg/m3
- mass density (298.15 K, 4800 kPa, x1 = 0.5013): 1051.57 ± 0.45 kg/m3
- mass density (298.15 K, 4800 kPa, x1 = 0.6994): 1124.91 ± 0.68 kg/m3
- mass density (298.15 K, 5000 kPa, x1 = 0.2995): 988.82 ± 0.34 kg/m3
- mass density (298.15 K, 5900 kPa, x1 = 0.2995): 989.64 ± 0.34 kg/m3
- mass density (298.15 K, 6100 kPa, x1 = 0.5013): 1052.93 ± 0.47 kg/m3
- mass density (298.15 K, 6100 kPa, x1 = 0.6994): 1126.11 ± 0.72 kg/m3
- mass density (298.15 K, 6900 kPa, x1 = 0.2995): 990.62 ± 0.34 kg/m3
- mass density (298.15 K, 7000 kPa, x1 = 0.6994): 1126.84 ± 0.74 kg/m3
- mass density (298.15 K, 7100 kPa, x1 = 0.5013): 1053.82 ± 0.48 kg/m3
- mass density (298.15 K, 7800 kPa, x1 = 0.2995): 991.51 ± 0.33 kg/m3
- mass density (298.15 K, 7800 kPa, x1 = 0.5013): 1054.57 ± 0.49 kg/m3
- mass density (298.15 K, 8000 kPa, x1 = 0.6994): 1127.94 ± 0.78 kg/m3
- mass density (298.15 K, 8600 kPa, x1 = 0.2995): 992.31 ± 0.33 kg/m3
- mass density (298.15 K, 8800 kPa, x1 = 0.6994): 1128.76 ± 0.8 kg/m3
- mass density (298.15 K, 9000 kPa, x1 = 0.5013): 1055.76 ± 0.51 kg/m3
- mass density (298.15 K, 9800 kPa, x1 = 0.5013): 1056.47 ± 0.52 kg/m3
- mass density (298.15 K, 9900 kPa, x1 = 0.2995): 993.71 ± 0.33 kg/m3
- mass density (298.15 K, 9900 kPa, x1 = 0.6994): 1129.84 ± 0.84 kg/m3
- mass density (298.15 K, 11700 kPa, x1 = 0.2995): 995.34 ± 0.33 kg/m3
- mass density (298.15 K, 11900 kPa, x1 = 0.5013): 1058.45 ± 0.55 kg/m3
- mass density (298.15 K, 12000 kPa, x1 = 0.6994): 1131.77 ± 0.91 kg/m3
- mass density (298.15 K, 13700 kPa, x1 = 0.6994): 1133.5 ± 0.96 kg/m3
- mass density (298.15 K, 13800 kPa, x1 = 0.2995): 997.35 ± 0.32 kg/m3
- mass density (298.15 K, 13800 kPa, x1 = 0.5013): 1060.29 ± 0.58 kg/m3
- mass density (298.15 K, 15600 kPa, x1 = 0.6994): 1135.23 ± 1 kg/m3
- mass density (298.15 K, 15900 kPa, x1 = 0.2995): 999.26 ± 0.32 kg/m3
- mass density (298.15 K, 15900 kPa, x1 = 0.5013): 1062.3 ± 0.62 kg/m3
- mass density (298.15 K, 17700 kPa, x1 = 0.6994): 1137.32 ± 1.1 kg/m3
- mass density (298.15 K, 17900 kPa, x1 = 0.2995): 1001.14 ± 0.32 kg/m3
- mass density (298.15 K, 18000 kPa, x1 = 0.5013): 1064.25 ± 0.66 kg/m3
- mass density (298.15 K, 19400 kPa, x1 = 0.2995): 1002.51 ± 0.33 kg/m3
- mass density (298.15 K, 19600 kPa, x1 = 0.6994): 1139.1 ± 1.2 kg/m3
- mass density (298.15 K, 19900 kPa, x1 = 0.5013): 1065.99 ± 0.7 kg/m3
- mass density (308.15 K, 101.33 kPa, x1 = 0.1036): 911.53 ± 0.46 kg/m3
- mass density (308.15 K, 101.33 kPa, x1 = 0.2054): 941.7 ± 0.4 kg/m3
- mass density (308.15 K, 101.33 kPa, x1 = 0.3019): 971.32 ± 0.35 kg/m3
- mass density (308.15 K, 101.33 kPa, x1 = 0.4003): 1002.93 ± 0.32 kg/m3
- mass density (308.15 K, 101.33 kPa, x1 = 0.4963): 1035.07 ± 0.38 kg/m3
- mass density (308.15 K, 101.33 kPa, x1 = 0.602): 1071.98 ± 0.45 kg/m3
- mass density (308.15 K, 101.33 kPa, x1 = 0.682): 1101.3 ± 0.51 kg/m3
- mass density (308.15 K, 101.33 kPa, x1 = 0.8002): 1147.08 ± 0.61 kg/m3
- mass density (308.15 K, 101.33 kPa, x1 = 0.9001): 1187.86 ± 0.7 kg/m3
- mass density (308.15 K, 101.33 kPa, x1 = 1): 1231.27 ± 0.79 kg/m3
